For one test, the system named is SKBR3 membranes. The test can be described thus: ELISA of control antibody binding to SKBR3 membranes. Conditions: control antibody against CD20. As to the method: (§1) The wells of a 96-well ELISA plate (Nunc) were coated with membrane fractions of the Her-2/neu overexpressing cell line SKBR3 and as a control for non-specific antibody bonds with membrane fractions of the Her-2/neu negative cell line HTB 132 in PBS overnight.
(§2) The next day, non-specific binding sites were blocked by 3 percent BSA in PBS. Herceptin as well as herceptin after preincubation with relevant and irrelevant phage mimotopes or by mimotopes on KLH as well as on KLH alone were applied to the coated, blocked ELISA plate in a repeated test. […] HRP enters into a color reaction with the substrate. The result of this color reaction can be quantified by photometer. The absorption coefficient of 450/630 nm (OD) is determined.
For orientation: An ELISA detects its analyte on a solid surface through an enzyme-linked reagent.

For a further test, the system named is Her-2/neu. The test can be described thus: ELISA inhibition of the binding of herceptin and HER-2/neu (SKBR3 membranes) by mimotopes. Conditions: in comparison to uninhibited herceptin control in ELISA, herceptin preincubated overnight. As to the method:
For the ELISA inhibition assay one tries to prevent this bond by preincubation with mimotopes on phages or KLH as carrier.
as §1, §2

Marks after values point to notes of the source that are not given here.

Regarding “Rituximab: humanized monoclonal antibody directed against the phosphoprotein surface antigen on lymphocytes, CD20; control antibody”, in the test on SKBR3 membranes, the “signal on SKBR3 membranes” value is given as “could not produce any signal”.

With “phage mimotope SEQ ID NO: 9: phage mimotope CHPTLLWPDFC (homo sapiens)”, the “Inhibition of herceptin binding with phage mimotopes” value in the test with Her-2/neu is 30.2* Percent.

The values above are taken from patent US7166694B2, “Vaccine against cancerous diseases which is based on mimotopes of antigens expressed on tumor cells” (priority 2000, dated 2007).
